Measured values: US9115082B2, “Dipeptidyl-peptidase-IV inhibitors for treatment of type 2 diabetes complex with hypertension” (priority 2012, dated 2015)

Tested on: blood glucose
Assay: oral glucose tolerance test in diet-induced obese mice
Format: in vivo, Male C57BL/6 mice
Settings: fasted DIO mice, 1 hour before glucose (2 g/kg) challenge
Method: Specifically, an oral glucose tolerance test in diet-induced obese mice were conducted. Male C57BL/6 mice (6-8 weeks of age) were used. Mice were fed a lean (control group) or high-fat (DIO group) diet (5 and 35% fat by weight, respectively) for 6-9 weeks and then administered an oral glucose tolerance test. […] Blood glucose was determined at various time points from tail bleeds using a glucometer. The blood glucose response curve (AUC's, t==2 hours) are 18.7±1.6, 20.1±0.7, 21.3±11.5 for above three groups, respectively.

For Cl.N#CC1CCCN1C(=O)CNCC(O)COc1ccccc1 (stereo not drawn) [compound 7, 1-(2-(2-hydroxy-3-phenoxypropylamino)acetyl)pyrrolidine-2-carbonitrile hydrochloride], the “blood glucose response curve (AUC's, t==2 hours)” value (shortened to “blood glucose response curve”) (3 mg/kg oral) was 21.3±11.5, the “blood glucose response curve” value (10 mg/kg oral) was 20.1±0.7 and the “blood glucose response curve” value (30 mg/kg oral) was 18.7±1.6.
